# “Also recorded” adds a separate entry of the source.
# Experiments:
# B16F10 melanoma [1] = assay: B16F10 melanoma isograft in HFD (obese) C57BL/6J mice: tumor growth and survival; type: in vivo
# Method: To study the impact of diet-induced obesity on the outcome of DTIC therapy in melanoma, we treated B16F10 melanoma isografted obese mice with DTIC purchased from Sigma, USA (80 mg/kg intraperitoneally for five consecutive days as described previously). In addition, to look into the impact of weight loss interventions on the outcome of DTIC therapy in obese mice, mice were administered with orlistat (an antiobesity drug known to inhibit gastrointestinal lipases) and/or shifted from high fat to normal diet followed by DTIC treatment. The detailed experimental plan is illustrated in Fig. 1a. Briefly, obese mice were administered orally with orlistat (10 mg/kg on every alternate day) purchased from Enzo Life Sciences, NY, USA, and/or shifted from high fat diet to normal diet. HFD C57BL/6J mice treated with vehicle or orlistat were termed as HFD-HFD Ctrl and HFD-HFD Orli (N = 11 per each group), respectively, whereas HFD C57BL/6J mice shifted to normal diet and treated with vehicle or orlistat were grouped as HFD-ND Ctrl and HFD-ND Orli (N = 11 per each group), respectively. After 15 days, these mice were injected subcutaneously (s.c.) with B16F10 cells (2 × 10^5) in 100 μl of PBS and monitored daily for the presence of palpable tumors and dimensions were recorded on alternate days. […] Tumor volume was calculated using the formula 0.52 × length × width^2 and was followed up throughout the study.
# B16F10 cells [2] = assay: Long-term survival assay, B16F10 cells in serum from experimental mice; type: cell-based, Murine
# Method: After 24 h, DMEM containing 5% serum collected from experimental C57BL/6J mice (as illustrated in Fig. 1) was added and cells were cultured chronically for 10 days.
# B16F1 cells [3] = assay: Long-term survival assay, B16F1 cells in serum from experimental mice; type: cell-based, Murine
# Text: Additional file 1: Table S1. Composition of diets used in the study. Normal diet (ND) was procured from Amrut Laboratory Animal Feed, Pune, India, and high fat diet (HFD) was purchased from Provimi Animal Nutrition Pvt. Ltd., Bangalore, India. *, HFD was also supplemented with 400 g groundnut and 200 g dried coconut per kg body weight of mice. […] Obesity-associated parameters in the experimental ND mice recorded at the end of the experiment. ND male C57BL/6J mice were divided into two major groups. One group was orally treated with orlistat every alternate day before inoculating with B16F10 cells. The second group was orally given vehicle control on every alternate day for 8 weeks. Mice from both the groups (N = 11 per each group) were injected (s.c.) with B16F10 cells (2 × 10^5 cells/mouse in 100 μl PBS). Their body weight was monitored weekly throughout the study, and serum was collected at the end of the experiment. Blood glucose, serum TG, serum cholesterol, serum-free fatty acids, and serum LDLc were measured. Serum factors including leptin, adiponectin, insulin, resistin, IL-6, and TNF-α were estimated by ELISA. […] Effect of obesity-associated serum factors on the protein level of P-gp, Cav-1, and FASN in B16F1 cells. […] The data were recorded using Zeiss LSM510 META Confocal Microscope. […] Data were acquired on FACS Calibur and analyzed using BD CellQuest Pro software. […]
# B16F10 cells [4] = assay: Long-term survival assay, B16F10 cells in CM from 3T3-L1 cells; type: cell-based, Murine
# Method: 3T3-L1 cells were plated in 35-mm dishes and differentiated as described, along with vehicle or orlistat treatment (50 μM).
# B16F1 cells [5] = assay: Long-term survival assay, B16F1 cells in CM from 3T3-L1 cells; type: cell-based, Murine
# Text: Additional file 1: Table S1. Composition of diets used in the study. Normal diet (ND) was procured from Amrut Laboratory Animal Feed, Pune, India, and high fat diet (HFD) was purchased from Provimi Animal Nutrition Pvt. Ltd., Bangalore, India. *, HFD was also supplemented with 400 g groundnut and 200 g dried coconut per kg body weight of mice. […] Obesity-associated parameters in the experimental ND mice recorded at the end of the experiment. ND male C57BL/6J mice were divided into two major groups. One group was orally treated with orlistat every alternate day before inoculating with B16F10 cells. The second group was orally given vehicle control on every alternate day for 8 weeks. Mice from both the groups (N = 11 per each group) were injected (s.c.) with B16F10 cells (2 × 10^5 cells/mouse in 100 μl PBS). Their body weight was monitored weekly throughout the study, and serum was collected at the end of the experiment. Blood glucose, serum TG, serum cholesterol, serum-free fatty acids, and serum LDLc were measured. Serum factors including leptin, adiponectin, insulin, resistin, IL-6, and TNF-α were estimated by ELISA. […] Effect of obesity-associated serum factors on the protein level of P-gp, Cav-1, and FASN in B16F1 cells. […] Thereafter, these cells were subjected to immunofluorescence confocal staining of the indicated molecules. The data were recorded using Zeiss LSM510 META Confocal Microscope. (Scale bar = 20 μm). […] Data were acquired on FACS Calibur and analyzed using BD CellQuest Pro software. The data are representative of experiments performed three times. (PDF 120 kb) Additional file 5: Figure S3. Effect of inhibition of FASN, Cav-1, and P-gp on response of B16F1 cells to DTIC. […] Thereafter, these cells were subjected to long-term survival assay. […] The medium was changed every 2–3 days.
# B16F10 cells [6] = assay: MTT assay, B16F10 cells grown in conditioned medium from 3T3-L1 cells; conditions: for IC50: Mus musculus, 10 days, DTIC 48 h, MTT
# B16F10 melanoma [7] = assay: B16F10 melanoma isograft in ND C57BL/6J mice: tumor growth and survival
# Method: Melanoma cells were injected and orlistat treatment was continued. Following tumor formation, all groups of mice were treated with vehicle (acidified water) or DTIC, and tumor volume was followed up in these mice throughout the study as mentioned above. […] At the end of the experiment, mice were sacrificed, tumors were excised, and the samples were immediately preserved at −80 °C until further use. Five mice from each group were followed up for survival studies as mentioned above.
# [8] = LC-MS/MS quantitation of DTIC in tumor, plasma, liver and adipose tissue
# Method: The samples were introduced to the mass spectrometer through a reversed-phase column (Agilent ZORBAX SB-C18, 2.1 × 30 mm, 3.5 μm). The mobile phase containing water and acetonitrile with 0.1% formic acid was infused at a flow rate of 0.4 ml min^−1. The MS scan range was set between 100 and 1000 m/z, with the dry gas flow and dry gas temperature maintained at 6 L min^−1 and 320 °C, respectively. […] All the mass spectrometric data were acquired in positive ionization mode using Agilent MassHunter data acquisition software, version B.05.01. MassHunter Quantitative analysis software, version B.07.00 was used for the generation of calibration curves and subsequent quantitation of DTIC in the samples. Calibration curves were created using linear fitting, 1/x weighting and including the origin. Calibration standards (0.5–800 ng) were prepared using standard DTIC. All the samples including the standard DTIC preparations were spiked with leucine enkephalin (10 ng) as internal standard. […] The quantitation capability of this method is evaluated by using samples with known concentrations.
# [9] = serum from orlistat-treated or diet-shifted obese mice, DTIC at 1415 μM
# [10] = CM from differentiated ID adipocytes
# [11] = CM from orlistat-treated differentiating adipocytes, DTIC at 649 μM
structure (smiles),measurement,setting,value
"CN(C)/N=N/c1[nH]cnc1C(N)=O [DTIC, Dacarbazine]",Survivability of tumor-bearing mice,B16F10 melanoma [1]; HFD mice,60 days
same,Survival of tumor-bearing mice,B16F10 melanoma [1]; HFD mice,reduced
same,Survivability increase,"B16F10 melanoma [1]; tumor-bearing HFD mice under weight control by orlistat treatment or diet shifting, DTIC therapy",40%
same,Increase of sensitivity to DTIC,"B16F10 cells [2]; HFD serum, FASN, Cav-1 and P-gp simultaneously inhibited (cerulenin, methyl β-cyclodextrin, verapamil)",approximately 80%
same,Reduction of cell survival,B16F10 cells [2]; [9],approximately 70%
same,Increase of sensitivity to DTIC,"B16F1 cells [3]; HFD serum, FASN, Cav-1 and P-gp simultaneously inhibited",approximately 80%
same,Reduction of cell survival,B16F1 cells [3]; [9],~75%
same,Effect on survival,B16F10 cells [4]; [10],did not remarkably affect
same,Improvement of sensitivity to DTIC,"B16F10 cells [4]; CM from differentiated adipocytes, simultaneous treatment with all three inhibitors (FASN, Cav-1, P-gp)",approximately 80%
same,Survival remaining,B16F10 cells [4]; [11],approximately 30%
same,Effect on survival,B16F1 cells [5]; [10],did not remarkably affect
same,Improvement of sensitivity to DTIC,"B16F1 cells [5]; CM from differentiated adipocytes, simultaneous treatment with all three inhibitors",approximately 80%
same,Survival remaining,B16F1 cells [5]; [11],approximately 30%
same,"Increase of concentration for 50% cell killing, CM of differentiated adipocytes vs preadipocytes",B16F10 cells [6]; B16F10 cells,~ 5 fold
same,IC50,"B16F10 cells [6]; B16-F10, CM from differentiated adipocytes (ID)",3250 µM
same,IC50,"B16F10 cells [6]; B16-F10, CM from undifferentiated preadipocytes (PA)",649 µM
same,Survival of tumor-bearing mice,B16F10 melanoma [7],prolonged
same,Tumor progression (tumor volume and weight),"B16F10 melanoma [7]; DTIC 80 mg/kg i.p. 5 days, orlistat 10 mg/kg oral alternate days",significantly reduced; also recorded: significantly decreased
same,"DTIC level in the plasma, liver, and adipose tissue",[8]; HFD mice compared to ND mice,higher
same,"Level of DTIC in tumors from HFD mice, fold less than in ND counterparts","[8]; tumor, mass spectrometry",~ 6 fold
